Structures can show the parent of a compound that is named as a salt.
Assays:
[1] = Differential scanning calorimetry (DSC), thermal decomposition / endothermic transition; type: physicochemical; conditions: for First significant endothermic transition (DSC): indicative of thermal degradation or solid-state transformation; for Decomposition temperature (DSC): 10° C./min
Method: Differential scanning calorimetry (DSC) is a thermoanalytical technique where the difference in the amount of heat required to increase the temperature of a sample and reference is measured as a function of temperature. Using this technique, phase transitions of a sample can be measured such as melting point. Decomposition can also be observed by DSC as can dehydration events. In the context of DSC measurements, there is also variability and the term “about” means ±1° C., and such variability is to be understood whether a DSC measurement is prefaced by “about” or not unless specified otherwise. Exemplary methods for collecting DSC data are set forth in Example 21. Thermogravimetric analysis, sometimes referred to as, thermal gravimetric analysis (TGA) is a thermal method of thermal analysis where the mass of a sample is measured as a function of time as the sample temperature changes. For example, when samples disclosed herein are heated and a loss in mass is measured prior to decomposition, this is likely indicative of the loss of water from the sample and may indicate that the sample being heated is a hydrate. Exemplary methods for collecting TGA are set forth in Example 23.
DSC was performed using a Mettler-Toledo DSC3+ differential scanning calorimeter. A tau lag adjustment is performed with indium, tin, and zinc. The temperature and enthalpy are adjusted with octane, phenyl salicylate, indium, tin and zinc. The adjustment is then verified with octane, phenyl salicylate, indium, tin, and zinc. The sample was placed into a hermetically sealed aluminum DSC pan, and the weight was accurately recorded. The pan was then inserted into the DSC cell. A weighed aluminum pan configured as the sample pan was placed on the reference side of the cell. The pan lid was pierced prior to sample analysis. Samples were analyzed from 30° C. to 350° C. or 30° C. to 250° C., both at 10° C./min.

[2] = Solubility of the lysine salt in solvents for NMR analysis; type: physicochemical
Excerpt: Use of TFA as solvent cleaves the sulfate group at the C3 position. ^1H-NMR analysis (CF3COOD) indicated a 1/1 ratio of lysine to cholesterol, as well as ~0.2 eq. triethylamine and some iPrOH.

CC(CCCC(C)(C)O)C1CCC2C3CC=C4CC(OS(=O)(=O)O)CCC4(C)C3CCC12C (stereo not drawn) [Salt #12]
First significant endothermic transition (DSC) ([1]; listed as t-butylammonium): ~201 °C

CC(CCCC(C)(C)O)C1CCC2C3CC=C4CC(OS(=O)(=O)O)CCC4(C)C3CCC12C (stereo not drawn) [Salt #2]
Decomposition temperature (DSC) ([1]; listed as crystalline 25HC3S calcium): about 130 °C

CC(CCCC(C)(C)O)C1CCC2C3CC=C4CC(OS(=O)(=O)O)CCC4(C)C3CCC12C (stereo not drawn) [Salt #1]
Decomposition temperature (DSC) ([1]; listed as crystalline 25HC3S potassium): 198 °C | First significant endothermic transition (DSC) ([1]; listed as potassium): ~198 °C

CC(CCCC(C)(C)O)C1CCC2C3CC=C4CC(OS(=O)(=O)O)CCC4(C)C3CCC12C (stereo not drawn) [Salt #8]
Decomposition temperature (DSC) ([1]; listed as crystalline 25HC3S tromethammonium): about 184 °C

CC(CCCC(C)(C)O)C1CCC2C3CC=C4CC(OS(=O)(=O)O)CCC4(C)C3CCC12C (stereo not drawn) [Salt #4]
First significant endothermic transition (DSC) ([1]; listed as choline): ~198 °C

CC(CCCC(C)(C)O)C1CCC2C3CC=C4CC(OS(=O)(=O)O)CCC4(C)C3CCC12C (stereo not drawn) [Salt #13]
Decomposition temperature (DSC) ([1]; listed as crystalline 25HC3S magnesium): about 139 °C

CC(CCCC(C)(C)O)C1CCC2C3CC=C4CC(OS(=O)(=O)O)CCC4(C)C3CCC12C (stereo not drawn) [Salt #6]
Decomposition temperature (DSC) ([1]; listed as crystalline 25HC3S hydroxyethylpyrrolidinium): about 181 °C

C[C@H](CCCC(C)(C)O)[C@H]1CC[C@H]2[C@@H]3CC=C4C[C@@H](OS(=O)(=O)O)CC[C@]4(C)[C@H]3CC[C@]12C [Salt #14]
Decomposition temperature (DSC) [1]: about 186 °C | First significant endothermic transition (DSC) [1]: ~186 °C | Solubility in other solvents (in words) ([2]; any other common organic solvents or acidic or basic aqueous solutions): No solubility was detected | Solubility in trifluoroacetic acid (in words) ([2]; trifluoroacetic acid): only adequately soluble in trifluoroacetic acid

CC(CCCC(C)(C)O)C1CCC2C3CC=C4CC(OS(=O)(=O)O)CCC4(C)C3CCC12C (stereo not drawn) [Salt #3]
Decomposition temperature (DSC) ([1]; listed as crystalline 25HC3S zinc): about 119 °C

CC(CCCC(C)(C)O)C1CCC2C3CC=C4CC(OS(=O)(=O)O)CCC4(C)C3CCC12C (stereo not drawn) [Salt #9]
First significant endothermic transition (DSC) ([1]; listed as benzathine): ~211 °C

CC(CCCC(C)(C)O)C1CCC2C3CC=C4CC(OS(=O)(=O)O)CCC4(C)C3CCC12C (stereo not drawn) [Salt #10]
First significant endothermic transition (DSC) ([1]; listed as diethanolamine): ~181 °C

Source: patent publication US20260317367A1, “SALTS INCLUDING CRYSTALLINE SALTS OF 25-HYDROXY-CHOLEST-5-EN-3-SULFATE AND METHODS FOR PREPARING SAME” (Durect Corporation, priority 2022, published 2026)
